Data on one compound can be found in patent US10253012B2, “Method and apparatus for preparation of lactide using lactide purification process” (priority 2015, dated 2019).

The nature of this series: Solubility of lactide in different solvents. In kind it is physicochemical.

With `CC1OC(=O)C(C)OC1=O` (centres unmarked) [lactide], the “solubility of lactide in ethanol” value (ethanol as first solvent, temperature maintained at 20 °C) was ≤ 10 wt %. Moreover, for the setting “solvent γ-butyrolactone, no solid crystal formed in condenser at 5 °C”, the “solubility of lactide in γ-butyrolactone (in words)” value was “high solubility”.
